Patent US20030236306A1, “Stabilized formulations of alpha adrenergic receptor antagonists and the uses thereof” (priority 2002, published 2003)
Structures can show the parent of a compound that is named as a salt.

Assay: Tonicity testing by vapor pressure osmometer
Assay type: physicochemical
Conditions: 0.5 mg/ml disodium EDTA, pH 3.5
Text: A vapor pressure osmometer (Westcore Model 5500) was used to measure the osmolarity of the solutions as well as a control of Normal Saline solution (0.9% sodium chloride, USP). The tonicity of the phentolamine solutions was represented by osmolarity. The measured osmolarity was plotted against d-mannitol concentration. A linear relationship was obtained between the osmolarity and d-mannitol concentration. The concentration of d-mannitol required to achieve the same osmolarity as the Normal Saline solution was calculated for the 10 or 50 mM sodium acetate buffered solution.

Calculated % Mannitol for Isotonicity (10 mM sodium acetate): 5.03%
Calculated % Mannitol for Isotonicity (50 mM sodium acetate): 4.39%
Measured Osmolality (2% Mannitol, 10 mM sodium acetate): 176 mmol/kg
Measured Osmolality (2% Mannitol, 50 mM sodium acetate): 193 mmol/kg
Measured Osmolality (3% Mannitol, 10 mM sodium acetate): 213 mmol/kg
Measured Osmolality (3% Mannitol, 50 mM sodium acetate): 234 mmol/kg
Measured Osmolality (4% Mannitol, 10 mM sodium acetate): 253 mmol/kg
Measured Osmolality (4% Mannitol, 50 mM sodium acetate): 276 mmol/kg
Compound: Cc1ccc(N(CC2=NCCN2)c2cccc(O)c2)cc1 [Phentolamine Mesylate, phentolamine mesylate]
